According to US20080287477A1, “Novel Compounds as Modulators of Ppar” (KALYPSYS, INC., priority 2006, published 2008):
pEC50: −log10 of the molar value.

Legend:
Format in all cases: cell-based, murine and human
Settings in all cases: 20-24 hours treatment
PPAR-alpha = biological target: T1, PPAR-alpha (UniProt Q07869); test: Transient transfection transactivation assay in CV-1 cells, GAL4-PPAR-alpha chimera, luciferase reporter
T1 sequence (Q07869 1-468): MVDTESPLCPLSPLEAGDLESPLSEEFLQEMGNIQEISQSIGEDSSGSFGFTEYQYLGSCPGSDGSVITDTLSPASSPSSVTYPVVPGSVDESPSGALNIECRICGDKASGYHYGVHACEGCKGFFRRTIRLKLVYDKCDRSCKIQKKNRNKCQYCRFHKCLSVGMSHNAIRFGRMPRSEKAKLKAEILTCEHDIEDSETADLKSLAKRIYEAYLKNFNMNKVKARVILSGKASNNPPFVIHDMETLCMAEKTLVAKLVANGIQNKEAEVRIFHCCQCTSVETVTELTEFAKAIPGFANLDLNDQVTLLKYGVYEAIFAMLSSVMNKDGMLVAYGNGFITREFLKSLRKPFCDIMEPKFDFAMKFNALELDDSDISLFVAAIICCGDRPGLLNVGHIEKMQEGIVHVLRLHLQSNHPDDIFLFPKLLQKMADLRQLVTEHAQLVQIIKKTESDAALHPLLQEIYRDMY
Excerpt: (§1) Compounds may be screened for functional potency in transient transfection assays in CV-1 cells for their ability to activate the PPAR subtypes (transactivation assay). A previously established chimeric receptor system was utilized to allow comparison of the relative transcriptional activity of the receptor subtypes on the same synthetic response element and to prevent endogenous receptor activation from complicating the interpretation of results. See, for example, Lehmann, J. M.; Moore, L. B.; Smith-Oliver, T. A: Wilkinson, W. O.; Willson, T. M.; Kliewer, S. A., An antidiabetic thiazolidinedione is a high affinity ligand for peroxisome proliferator-activated receptor […], J. Biol. Chem., 1995, 270, 12953-6. The ligand binding domains for murine and human PPAR-alpha, PPAR-gamma, and PPAR-delta are each fused to the yeast transcription factor GAL4 DNA binding domain. CV-1 cells were transiently transfected with expression vectors for the respective PPAR chimera along with a reporter construct containing four or five copies of the GAL4 DNA binding site driving expression of luciferase. After 8-16 h, the cells are replated into multi-well assay plates and the media is exchanged to phenol-red free DME medium supplemented with 5% delipidated coif serum. 4 hours after replating, cells were treated with either compounds or 1% DMSO for 20-24 hours. Luciferase activity was then assayed with Britelite (Perkin Elmer) following the manufacturer's protocol and measured with either the Perkin Elmer Viewlux or Molecular Devices Acquost (see, for example. Kliewer, S. A., et. al. Cell 1995, 83, 813-819). Rosiglitazone is used as a positive control in the PPARγ assay. Wy-14643 and GW7647 is used as a positive control in the […]. GW50156 is used as the positive control in the PPARδ assay.
Examples 1-20 were assayed to measure their biological activity with respect to their efficacy for modulating PPAR-alpha, PPAR-gamma, and PPAR-delta. EC50 values are set forth below in Table 1.

PPAR-delta = biological target: T2, PPAR-delta (UniProt Q03181); test: Transient transfection transactivation assay in CV-1 cells, GAL4-PPAR-delta chimera, luciferase reporter
T2 sequence (Q03181 1-441): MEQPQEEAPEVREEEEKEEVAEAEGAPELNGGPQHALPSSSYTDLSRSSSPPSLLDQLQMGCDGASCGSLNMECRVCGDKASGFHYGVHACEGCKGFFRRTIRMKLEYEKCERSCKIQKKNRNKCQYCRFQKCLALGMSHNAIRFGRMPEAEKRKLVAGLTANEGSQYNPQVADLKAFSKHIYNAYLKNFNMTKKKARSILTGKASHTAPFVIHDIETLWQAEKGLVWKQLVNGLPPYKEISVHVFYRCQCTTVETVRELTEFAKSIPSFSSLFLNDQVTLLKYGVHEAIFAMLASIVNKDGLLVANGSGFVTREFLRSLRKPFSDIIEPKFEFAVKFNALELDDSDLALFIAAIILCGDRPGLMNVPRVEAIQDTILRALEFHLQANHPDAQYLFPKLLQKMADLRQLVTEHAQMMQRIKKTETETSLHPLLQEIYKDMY
Excerpt: as §1
(§2) EC50 values are set forth below in Table 1.

PPAR-gamma = biological target: T3, PPAR-gamma (UniProt P37231); test: Transient transfection transactivation assay in CV-1 cells, GAL4-PPAR-gamma chimera, luciferase reporter
T3 sequence (P37231 1-505): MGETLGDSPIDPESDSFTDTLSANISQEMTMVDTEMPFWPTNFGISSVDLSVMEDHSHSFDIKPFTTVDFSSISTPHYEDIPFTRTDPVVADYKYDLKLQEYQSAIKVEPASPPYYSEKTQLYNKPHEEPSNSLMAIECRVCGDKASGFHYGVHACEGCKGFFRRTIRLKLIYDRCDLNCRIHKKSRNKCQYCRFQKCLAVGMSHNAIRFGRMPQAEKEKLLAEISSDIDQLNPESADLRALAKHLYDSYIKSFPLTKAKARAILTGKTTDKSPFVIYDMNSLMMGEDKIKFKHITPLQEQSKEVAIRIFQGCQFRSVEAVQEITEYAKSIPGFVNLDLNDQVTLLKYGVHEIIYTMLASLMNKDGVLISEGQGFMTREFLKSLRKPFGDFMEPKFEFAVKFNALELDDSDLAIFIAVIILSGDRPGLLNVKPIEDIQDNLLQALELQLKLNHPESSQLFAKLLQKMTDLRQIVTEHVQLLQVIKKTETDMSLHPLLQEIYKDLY
Excerpt: as §1, §2

Row | SMILES | pEC50 (PPAR-alpha) | pEC50 (PPAR-delta) | pEC50 (PPAR-gamma)
1 | CCc1cnc(N(CCNS(=O)(=O)c2cc(C)cc(CC(=O)O)c2)Cc2ccc(OC(F)(F)F)cc2)nc1 [Example 2, (3-{2-[(Ethyl-pyrimidin-2-yl)-(4-trifluoromethoxy-benzyl)-amino]-ethylsulfamoyl)-5-methyl-phenyl)-acetic acid] | > 5.30 | > 5.30 | > 5.30
2 | CCCCCN(CCNS(=O)(=O)c1cc(C)cc(CC(=O)O)c1)Cc1ccc(OC(F)(F)F)cc1 [Example 4] | > 5.30 | > 5.30 | > 5.30
3 | CCN(CCNS(=O)(=O)c1cc(C)cc(CC(=O)O)c1)Cc1ccc(OC(F)(F)F)cc1 [Example 5, (3-{2-[Ethyl-(4-trifluoromethoxy-benzyl}-amino]-ethylsulfamoyl)-5-methyl-phenyl)-acetic acid] | 4.00 to 5.30 | > 5.30 | > 5.30
4 | CCCCN(CCNS(=O)(=O)c1cc(C)cc(CC(=O)O)c1)Cc1ccc(OC(F)(F)F)cc1 [Example 6, (3-{2-[Butyl-(4-trifluoromethoxy-benzyl)-amino]-ethylsulfamoyl}-5-methyl-phenyl)-acetic acid] | > 5.30 | > 5.30 | > 5.30
5 | CCCc1c(OCCN(C)S(=O)(=O)c2ccc3c(c2)C(C(=O)O)CC3)ccc(C(C)=O)c1O (stereo not drawn) [Example 10, 6-(N-(2-(4-Acetyl-3-hydroxy-2-propylphenoxy)ethyl)-N-methylsulfamoyl)-2-dihydro-1H-indene-1-carboxylic acid] | > 5.30 | > 5.30 | > 5.30
6 | CCCc1c(OCCNS(=O)(=O)c2cccc3c2CC(C(=O)O)C3)ccc(C(C)=O)c1O (stereo not drawn) [Example 11, 4-(N-(2-(4-Acetyl-3-hydroxy-2-propylphenoxy)ethyl)sulfamoyl)-2,3-dihydro-1H-indene-2-carboxylic acid] | < 4.00 | > 5.30 | > 5.30
7 | CCCc1c(OCCNS(=O)(=O)c2ccc3c(c2)CC(C(=O)O)C3)ccc(C(C)=O)c1O (stereo not drawn) [Example 12, 5-(N-(2-(4-Acetyl-3-hydroxy-2-propylphenoxy)ethyl)sulfamoyl)-2,3-dihydro-1H-indene-2-carboxylic acid] | 4.00 to 5.30 | 4.00 to 5.30 | 4.00 to 5.30
8 | CCCc1c(OCCN(C)S(=O)(=O)c2ccc3c(c2)CC(C(=O)O)C3)ccc(C(C)=O)c1O (stereo not drawn) [Example 13] | < 4.00 | < 4.00 | 4.00 to 5.30

Results, then the molecule that gave them:

Row | pEC50 (PPAR-alpha) | pEC50 (PPAR-delta) | pEC50 (PPAR-gamma) | SMILES
9 | > 5.30 | > 5.30 | > 5.30 | CCc1cnc(N(CCNS(=O)(=O)c2cccc3c2CC(C(=O)O)C3)Cc2ccc(OC(F)(F)F)cc2)nc1 (stereo not drawn) [Example 1, 4-{2-[(5-Ethyl-pyrimidin-2-yl)-(4-trifluoromethoxy-benzyl}-amino]-ethylsulfamoyl)-indan-2-carboxylic acid]
10 | > 5.30 | > 5.30 | > 5.30 | CCCCCN(CCNS(=O)(=O)c1cccc2c1CC(C(=O)O)C2)Cc1ccc(OC(F)(F)F)cc1 (stereo not drawn) [Example 3, 4-{2-[Pentyl-(4-trifluoromethoxy-benzyl)-amino]-ethylsulfamoyl}-indan-2-carboxylic acid]
11 | > 5.30 | > 5.30 | > 5.30 | CCCCN(CCNS(=O)(=O)c1cccc2c1CC(C(=O)O)C2)Cc1ccc(OC(F)(F)F)cc1 (stereo not drawn) [Example 7, 4-{2-[Butyl-(4-trifluoromethoxy-benzyl)-amino]-ethylsulfamoyl}-indan-2-carboxylic acid]
12 | > 5.30 | > 5.30 | > 5.30 | CCN(CCNS(=O)(=O)c1cccc2c1CC(C(=O)O)C2)Cc1ccc(OC(F)(F)F)cc1 (stereo not drawn) [Example 8]
13 | < 4.00 | > 5.30 | > 5.30 | CCCc1c(OCCN(C)S(=O)(=O)c2cccc3c2CC(C(=O)O)C3)ccc(C(C)=O)c1O (stereo not drawn) [Example 9, 4-(N-(2-(4-Acetyl-3-hydroxy-2-propylphenoxy)ethyl)-N-methylsulfamoyl)-2,3-dihydro-1H-indene-2-carboxylic acid]
14 | > 5.30 | > 5.30 | > 5.30 | CCCc1c(OCCN(C)S(=O)(=O)c2cccc3c2CC(C(=O)O)C3)ccc2c(C(F)(F)F)noc12 (stereo not drawn) [Example 14, 4-(N-methyl-N-(2-(7-propyl-3-(trifluoromethyl)benzo[d]isoxazol-6-yloxy)ethyl)sulfamoyl)-2,3-dihydro-1H-indene-2-carboxylic acid]
15 | < 4.00 | > 5.30 | < 4.00 | Cc1ccc(C(=NOCCN(C)S(=O)(=O)c2cccc3c2CC(C(=O)O)C3)c2ccc(C)cc2)cc1 (stereo not drawn) [Example 15, 4-(N-(2-(di-p-tolylmethyleneaminooxy)ethyl)-N-methylsulfamoyl)-2,3-dihydro-1H-indene-2-carboxylic acid]
16 | > 5.30 | > 5.30 | > 5.30 | Cc1ccc(S(=O)(=O)N(C)CCON=C(c2ccc(C(F)(F)F)cc2)c2ccc(C(F)(F)F)cc2)cc1CC(=O)O [Example 16]
17 | < 4.00 | > 5.30 | > 5.30 | CN(CCON=C(c1ccc(C(F)(F)F)cc1)c1ccc(C(F)(F)F)cc1)S(=O)(=O)c1cccc2c1CC(C(=O)O)C2 (stereo not drawn) [Example 18, 4-(N-(2-(bis(4-(trifluoromethyl)phenyl)methyleneaminooxy)ethyl)-N-methylsulfamoyl)-2,3-dihydro-1H-indene-2-carboxylic acid]
18 | < 4.00 | > 5.30 | > 5.30 | CN(CCON=C(c1ccc(OC(F)(F)F)cc1)c1ccc(OC(F)(F)F)cc1)S(=O)(=O)c1cccc2c1CC(C(=O)O)C2 (stereo not drawn) [Example 19, 4-(N-(2-(bis(4-(trifluoromethoxy)phenyl)methyleneaminooxy)ethyl)-N-methylsulfamoyl)-2,3-dihydro-1H-indene-2-carboxylic acid]
19 | > 5.30 | > 5.30 | > 5.30 | Cc1ccc(C(=NOCCN(C)S(=O)(=O)c2ccc(C)c(CC(=O)O)c2)c2ccc(C)cc2)cc1 [Example 20]
